Consider one substance from patent publication US6403117B1, “Archaesomes, archaeosomes containing coenzyme Q10 and other types of liposomes containing coenzyme Q10 adjuvants and as delivery vehicles” (National Research Council of Canada, priority 1995, dated 2002).

This test relates to bovine serum albumin (BSA) antigen. The experiment in a line: Immunization, humoral response by ELISA. Type of test: in vivo, mice. To be noted: for Antibody titres (A410 nm): 12.5 μg BSA i.p. at days 0 and 14, sera diluted by a factor of 400. How it is done:
For in vivo studies with archaeosomes (prepared from the TPL, or a lipid obtained in a biologically pure form from the indicated archaeobacterium) and conventional liposomes (prepared from DMPC:DMPG at 1.8:0.2 molar ratio, or DMPC:DMPG:CHOL at 1.8:0.2:1.5 molar ratio, or DMPC:DCP:CHOL at 7:1:2 molar ratio) containing entrapped antigen, the vesicles were prepared by pressure extrusion (at room temperature for archaeobacterial and at 35° C. for DMPC-containing lipids, using 400 nm pore size filters). About 20 mg dry weight of the dried lipid(s) was hydrated in 1 ml PBS containing either BSA (5 mg/ml), Cholera B toxin subunit (0.5 mg/ml), or O-chain polysaccharide (18 mg/ml). To entrap BSA in DSPC:DCP:CHOL (4:1:5, molar ratio), in DSPC:DCP:CHOL:CoQ10 (3:1:4:2, molar ratio), and M. mazei TPL:CoQ10 (8:2, molar ratio), the vesicles were prepared by the REV (at 55° C.)-sonication method described above. The BSA was encapsulated in these vesicles by the DRV method as described by New (13). The antigen that was not entrapped/associated with the vesicles was removed by centrifugation and washing as described for peroxidase-vesicles.
The immunization strategies were similar for each of the different experiments. For each experiment, details of the amounts and types of antigen/adjuvant injected, and the time intervals between injections is described in the appropriate figure legends. Freund's adjuvant (FA) encompasses Freund's complete adjuvant (CFA) and Freund's incomplete adjuvant (IFA) used at 62.5% strength in PBS. For each antigen/adjuvant preparation three mice were injected (unless indicated otherwise) i.p., i.m., or s.c. with antigens encapsulated in archaeosomes or liposomes (diluted in sterile PBS, pH 7.1), antigens emulsified in CFA, or with antigens diluted in PBS alone (final volume, 0.2 ml/mouse). For the second immunization, mice were injected with antigens encapsulated in archaeosomes or liposomes, or emulsified in IFA, or diluted in PBS. For experiments where a third or fourth injection was required, antigens were injected either encapsulated in the respective vesicle type or as bare antigen diluted in PBS. Mice were 6-8 weeks of age at the time of the first immunization.
Mice were bled from the tail veins usually four days after each injection. The blood was allowed to dot, and cells removed from the serum by centrifuging in serum separator tubes.
The humoral response was measured by the indirect enzyme-linked immunosorbent assay (ELISA) using a variety of solid-phase adsorbed antigens. BSA, Cholera B toxin subunit, or E. coli 0:157:H7 lipopolysaccharide was diluted in distilled water (15 μg/ml final concentration) and 100 μl/well was dried (overnight incubation at 37° C.) to coat the ELISA microplate wells. All indirect ELISA assays were performed using standard methods. Dilutions of antibody-containing sera were used as the first antibody and a 1/1500 dilution of HRP-conjugated goat anti-mouse IgG+IgM as the detection antibody.
The isotypes of anti-BSA antibodies raised in mouse sera were assayed by an ELISA method. Wells were coated with BSA (as above). Dilutions of each serum were titred with peroxidase-coupled sheep anti-mouse IgG1, IgG2a, IgG2b, IgG3, and IgM. All ELISA data are reported as the means ± sample standard deviations.
(In general: ELISA stands for enzyme-linked immunosorbent assay.)

Turning to “Bare BSA: bovine serum albumin antigen alone in PBS, without adjuvant or vesicle”, the “Antibody titres (A410 nm)” value is 0.064 ± 0.001 A410 nm (Day 25), 0.082 ± 0.007 A410 nm (Day 35) and 0.075 ± 0.008 A410 nm (Day 55). The “Antibody titre (A410 nm)” value by setting is: (i.m., 12.5 μg antigen alone in PBS, sera diluted 400-fold) 0.063 ± 0.003 A410 nm; (i.p., 25 μg antigen alone in PBS, no carrier/adjuvant, sera diluted 400 fold) 0.137 ± 0.002 A410 nm. For the same substance, where the note is “i.p., 12.5 μg BSA, days 0 and 14, blood day 20, IgG + IgM, archaeobacterial lipids none”, the “Immune response (Relative %)” value is given as 6.9 ± 0.3 Relative %. For the same substance, the “Anti-BSA antibody Concentration” value (i.p., antigen alone in PBS, undiluted sera) was found to be 10.5 µg/mL.
